Assays:
Assay type in all cases: functional
A2780 [1] = assay: Induction of apoptosis in human A2780 cells assessed as viable cells at 1000 nM by 7-AAD/Annexin staining-based assay (reference value: 95 to 96.7%); details: read-out: Activity
A2780 [2] = assay: Induction of apoptosis in human A2780 cells assessed as early apoptotic cells at 1000 nM by 7-AAD/Annexin staining-based assay (reference value: 1.7 to 2.1%)
A2780 [3] = assay: Induction of apoptosis in human A2780 cells assessed as late apoptotic cells at 1000 nM by 7-AAD/Annexin staining-based assay (reference value: 1.2 to 2.2%)
A2780 [4] = assay: Induction of apoptosis in human A2780 cells assessed as nuclear debris at 1000 nM by 7-AAD/Annexin staining-based assay (reference value: 0.3 to 1.1%)
A2780 [5] = assay: Induction of apoptosis in human A2780 cells assessed as viable cells at 300 nM by 7-AAD/Annexin staining-based assay (reference value: 95 to 96.7%); details: read-out: Activity
A2780 [6] = assay: Induction of apoptosis in human A2780 cells assessed as early apoptotic cells at 300 nM by 7-AAD/Annexin staining-based assay (reference value: 1.7 to 2.1%)
A2780 [7] = assay: Induction of apoptosis in human A2780 cells assessed as early apoptotic cells at 100 nM by 7-AAD/Annexin staining-based assay (reference value: 1.7 to 2.1%)
A2780 [8] = assay: Induction of apoptosis in human A2780 cells assessed as nuclear debris at 100 nM by 7-AAD/Annexin staining-based assay (reference value: 0.3 to 1.1%)
MCF7 [9] = assay: Induction of apoptosis in human MCF7 cells assessed as viable cells at 1000 nM by 7-AAD/Annexin staining-based assay (reference value: 92.6 to 96.8%); details: read-out: Activity
MCF7 [10] = assay: Induction of apoptosis in human MCF7 cells assessed as early apoptotic cells at 1000 nM by 7-AAD/Annexin staining-based assay (reference value: 2 to 2.7%)
MCF7 [11] = assay: Induction of apoptosis in human MCF7 cells assessed as early apoptotic cells at 300 nM by 7-AAD/Annexin staining-based assay (reference value: 2 to 2.7%)
MCF7 [12] = assay: Induction of apoptosis in human MCF7 cells assessed as nuclear debris at 300 nM by 7-AAD/Annexin staining-based assay (reference value: 0.2 to 3%)
MCF7 [13] = assay: Induction of apoptosis in human MCF7 cells assessed as viable cells at 100 nM by 7-AAD/Annexin staining-based assay (reference value: 92.6 to 96.8%); details: read-out: Activity
MCF7 [14] = assay: Induction of apoptosis in human MCF7 cells assessed as nuclear debris at 100 nM by 7-AAD/Annexin staining-based assay (reference value: 0.2 to 3%)
PC-3 [15] = assay: Induction of apoptosis in human p53-null PC3 cells assessed as nuclear debris at 1000 nM by 7-AAD/Annexin staining-based assay (reference value: 0.1 to 0.5%)
PC-3 [16] = assay: Induction of apoptosis in human p53-null PC3 cells assessed as viable cells at 300 nM by 7-AAD/Annexin staining-based assay (reference value: 96.5 to 98.6%); details: read-out: Activity
PC-3 [17] = assay: Induction of apoptosis in human p53-null PC3 cells assessed as early apoptotic cells at 300 nM by 7-AAD/Annexin staining-based assay (reference value: 0.6 to 1.4%)
PC-3 [18] = assay: Induction of apoptosis in human p53-null PC3 cells assessed as late apoptotic cells at 300 nM by 7-AAD/Annexin staining-based assay (reference value: 0.4 to 1.6%)
PC-3 [19] = assay: Induction of apoptosis in human p53-null PC3 cells assessed as viable cells at 100 nM by 7-AAD/Annexin staining-based assay (reference value: 96.5 to 98.6%); details: read-out: Activity
PC-3 [20] = assay: Induction of apoptosis in human p53-null PC3 cells assessed as late apoptotic cells at 100 nM by 7-AAD/Annexin staining-based assay (reference value: 0.4 to 1.6%)
MFE-280 [21] = assay: Induction of apoptosis in human MFE280 cells assessed as viable cells at 1000 nM by 7-AAD/Annexin staining-based assay (reference value: 84.9 to 87.7%); details: read-out: Activity
MFE-280 [22] = assay: Induction of apoptosis in human MFE280 cells assessed as nuclear debris at 1000 nM by 7-AAD/Annexin staining-based assay (reference value: 0.5 to 2.3%)
MFE-280 [23] = assay: Induction of apoptosis in human MFE280 cells assessed as viable cells at 300 nM by 7-AAD/Annexin staining-based assay (reference value: 84.9 to 87.7%); details: read-out: Activity
MFE-280 [24] = assay: Induction of apoptosis in human MFE280 cells assessed as nuclear debris at 100 nM by 7-AAD/Annexin staining-based assay (reference value: 0.5 to 2.3%)
MFE-296 [25] = assay: Induction of apoptosis in human MFE296 cells assessed as early apoptotic cells at 1000 nM by 7-AAD/Annexin staining-based assay (reference value: 1.5 to 2.1%)
MFE-296 [26] = assay: Induction of apoptosis in human MFE296 cells assessed as viable cells at 300 nM by 7-AAD/Annexin staining-based assay (reference value: 90.9 to 94.4%); details: read-out: Activity
MFE-296 [27] = assay: Induction of apoptosis in human MFE296 cells assessed as early apoptotic cells at 300 nM by 7-AAD/Annexin staining-based assay (reference value: 1.5 to 2.1%)
MFE-296 [28] = assay: Induction of apoptosis in human MFE296 cells assessed as viable cells at 100 nM by 7-AAD/Annexin staining-based assay (reference value: 90.9 to 94.4%); details: read-out: Activity
MFE-296 [29] = assay: Induction of apoptosis in human MFE296 cells assessed as early apoptotic cells at 100 nM by 7-AAD/Annexin staining-based assay (reference value: 1.5 to 2.1%)
MFE-296 [30] = assay: Induction of apoptosis in human MFE296 cells assessed as late apoptotic cells at 100 nM by 7-AAD/Annexin staining-based assay (reference value: 3.6 to 6.6%)
T47D [31] = assay: Induction of apoptosis in human T47D cells assessed as viable cells at 1000 nM by 7-AAD/Annexin staining-based assay (reference value: 74.5 to 94.5%); details: read-out: Activity
T47D [32] = assay: Induction of apoptosis in human T47D cells assessed as early apoptotic cells at 1000 nM by 7-AAD/Annexin staining-based assay (reference value: 1.6 to 4.3%)
T47D [33] = assay: Induction of apoptosis in human T47D cells assessed as nuclear debris at 1000 nM by 7-AAD/Annexin staining-based assay (reference value: 0.2 to 7.7%)
T47D [34] = assay: Induction of apoptosis in human T47D cells assessed as nuclear debris at 300 nM by 7-AAD/Annexin staining-based assay (reference value: 0.2 to 7.7%)
T47D [35] = assay: Induction of apoptosis in human T47D cells assessed as nuclear debris at 100 nM by 7-AAD/Annexin staining-based assay (reference value: 0.2 to 7.7%)

SMILES	viability at 1 µM (A2780 [1]) [%]	Activity (A2780 [2]) [%]	Activity (A2780 [3]) [%]	Activity (A2780 [4]) [%]	viability at 0.3 µM (A2780 [5]) [%]	Activity (A2780 [6]) [%]	Activity (A2780 [7]) [%]	Activity (A2780 [8]) [%]	viability at 1 µM (MCF7 [9]) [%]	Activity (MCF7 [10]) [%]	Activity (MCF7 [11]) [%]	Activity (MCF7 [12]) [%]	viability at 0.1 µM (MCF7 [13]) [%]	Activity (MCF7 [14]) [%]	Activity (PC-3 [15]) [%]	viability at 0.3 µM (PC-3 [16]) [%]	Activity (PC-3 [17]) [%]	Activity (PC-3 [18]) [%]	viability at 0.1 µM (PC-3 [19]) [%]	Activity (PC-3 [20]) [%]	other results
CN[C@@H]1C[C@H]2O[C@@](C)([C@@H]1OC)n1c3ccccc3c3c4c(c5c6ccccc6n2c5c31)C(=O)NC4 [STAUROSPORINE]	57.8	5.1	32.8	4.3	87.1	3.4	5.4	0.4	62.1	3.5	7.4	1.1	93	0.6	0.2	98.6	1	0.2	98	0.7	viability at 1 µM (MFE-280 [21]): 47.5%; Activity (MFE-280 [22]): 3.1%; viability at 0.3 µM (MFE-280 [23]): 57%; Activity (MFE-280 [24]): 1.1%; Activity (MFE-296 [25]): 4.4%; viability at 0.3 µM (MFE-296 [26]): 57.2%; Activity (MFE-296 [27]): 6.8%; viability at 0.1 µM (MFE-296 [28]): 83.6%; Activity (MFE-296 [29]): 7.5%; Activity (MFE-296 [30]): 6.6%; viability at 1 µM (T47D [31]): 88.4%; Activity (T47D [32]): 6.2%; Activity (T47D [33]): 0.6%; Activity (T47D [34]): 0.4%; Activity (T47D [35]): 0.1%
O=C(Nc1ccc(-c2cccc(Cl)c2)cn1)c1cncnc1	90	4.5	4.1	1.4	92.1	3.5	3.6	0.5	94	3.3	4.1	0.5	94.4	0.4	0.5	98.2	0.8	0.8	98.9	0.4	viability at 1 µM (MFE-280 [21]): 85.1%; Activity (MFE-280 [22]): 0.7%; viability at 0.3 µM (MFE-280 [23]): 84.4%; Activity (MFE-280 [24]): 0.6%; Activity (MFE-296 [25]): 3.7%; viability at 0.3 µM (MFE-296 [26]): 86.5%; Activity (MFE-296 [27]): 2.8%; viability at 0.1 µM (MFE-296 [28]): 90.9%; Activity (MFE-296 [29]): 2.1%; Activity (MFE-296 [30]): 5.7%; viability at 1 µM (T47D [31]): 82.9%; Activity (T47D [32]): 12%; Activity (T47D [33]): 0.6%; Activity (T47D [34]): 0.3%; Activity (T47D [35]): 0.2%

Reference: ChEMBL document CHEMBL4043145, “Pyridine-pyrimidine amides that prevent HGF-induced epithelial scattering by two distinct mechanisms” (Bioorg Med Chem Lett, 2017)
